In US9133439B2, “Differentiation of human embryonic stem cells” (Janssen Biotech, Inc., priority 2009, dated 2015):
Values joined by “and” are separate entries in the source; they are usually repeats but may differ in a detail not shown here. Equal values may be shown once. Read-outs that look alike come from different tables or passages of the source.

Assays:
[1] = tested on: H1 human embryonic stem cells (differentiated); format: cell-based
[2] = tested on: H1 human embryonic stem cells (differentiated); experiment: Example 3: confirmation screen, total cell number (nuclei) by high content analysis; format: cell-based; details: relative to control treatment
Excerpt: All wells were fed and treated identically.

[3] = ratio for well treated with individual compound relative to average of wells with DMSO alone
[4] = 2.5 uM, steps 3 and 4, triplicate

Compound	Total Nuclei [1, 3]	other results
O=C1Nc2ccccc2/C1=C1/Nc2ccccc2C1=O [Indirubin]	1.01	–
Oc1c2ccccc2c2c3c(cccc13)N=N2 [SP 600125]	1.04	–
O=S(=O)(c1cccc2cnccc12)N1CCCNCC1 [HA-1077]	1.02	Total Nuclei Ratio [2, 4]: 1.07
Cc1ccc(S(=O)(=O)/C=C/C#N)cc1 [BAY 11-7082]	0.93	–
CCCCCCCCCCCCCCCC(=O)OC(CC(=O)O)C[N+](C)(C)C.[Cl-] (racemic) [Palmitoyl-DL-carnitine Cl]	1.05	–
CC(C)c1cnc(NC(=O)Cc2ccccc2)s1 [BML-259]	1.04	Total Nuclei Ratio [2, 4]: 0.99
Nc1ncnc2c1c(I)cn2[C@@H]1O[C@H](CO)[C@@H](O)[C@H]1O [5-Iodotubercidin]	0.08	–
Oc1ccc(-c2nc(-c3ccc(F)cc3)c(-c3ccncc3)[nH]2)cc1 [SB-202190]	1.08	Total Nuclei Ratio [2, 4]: 1.08
COc1cc(/C=C(\C#N)C(N)=O)cc(CSc2nc3ccccc3s2)c1O [AG-825]	1.05	–
N#CC(=C(/N)Sc1ccccc1N)/C(C#N)=C(\N)Sc1ccccc1N [U-0126]	–	Total Nuclei [1]: 0.87
CN[C@@H]1C[C@H]2O[C@@](C)([C@@H]1OC)n1c3ccccc3c3c4c(c5c6ccccc6n2c5c31)C(=O)NC4 [Staurosporine]	0.13	–
CS(=O)(=O)O.Cn1cc(C2=C(c3cn(CCCSC(=N)N)c4ccccc34)C(=O)NC2=O)c2ccccc21 [Ro 31-8220]	0.09	–
O=C1Nc2ccc(I)cc2/C1=C/c1cc(Br)c(O)c(Br)c1 [GW 5074]	1.06	Total Nuclei Ratio [2, 4]: 1.11
O=c1c(-c2ccc(O)cc2)coc2cc(O)cc(O)c12 [Genistein]	1.03	–
N#C/C(=C\c1ccc(O)c(O)c1)C(N)=O [Tyrphostin 46]	1.05	–
Cl.O=S(=O)(c1cccc2c(Cl)cccc12)N1CCCNCC1 [ML-9]	1.06	–
CC(=O)c1c(O)c(C)c(O)c(Cc2c(O)c3c(c(C(=O)/C=C/c4ccccc4)c2O)OC(C)(C)C=C3)c1O [Rottlerin]	0.24	–
Cc1ccc(NC(=O)c2cccc(N(C)C)c2)cc1NC(=O)c1ccc(O)cc1 [ZM 336372]	1.06	–
C#Cc1cccc(Nc2ncnc3cc(OC)c(OC)cc23)c1 [BML-265]	1.06	Total Nuclei Ratio [2, 4]: 0.97
Cl.Cl.O=S(=O)(NCCNC/C=C/c1ccc(Br)cc1)c1cccc2cnccc12 [H-89]	1.09	Total Nuclei Ratio [2, 4]: 1.08
COC[C@H]1OC(=O)c2coc3c2[C@@]1(C)C1=C(C3=O)[C@@H]2CCC(=O)[C@@]2(C)C[C@H]1OC(C)=O [Wortmannin]	1.10	–
O=c1cc(N2CCOCC2)oc2c(-c3ccccc3)cccc12 [LY 294002]	1.08	Total Nuclei Ratio [2, 4]: 1.03
COc1cc2ncc(-c3ccccc3)nc2cc1OC [AG-1296]	1.09	–
N#CC(C#N)=Cc1ccc(O)c(O)c1 [Tyrphostin 23]	1.03	–
Indirubin-3′-monoxime	0.96	–
CCCCCCCCCCCCC/C=C/[C@@H](O)[C@@H](N)CO [Sphingosine]	1.04	–

Compound	Total Nuclei [1, 3]	other results
O=C(O)c1cc(N(Cc2ccccc2O)Cc2cc(O)ccc2O)ccc1O [Lavendustin A]	1.02	–
CC1CNCCN1S(=O)(=O)c1cccc2cnccc12 (stereo not shown) [H-7]	1.02	Total Nuclei Ratio [2, 4]: 1.09
CO[C@@H]1[C@H](N(C)C(=O)c2ccccc2)C[C@H]2O[C@]1(C)n1c3ccccc3c3c4c(c5c6ccccc6n2c5c31)C(=O)NC4 [PKC-412]	0.17	–
O=c1c(-c2ccc(O)cc2)coc2cc(O)ccc12 [Daidzein]	1.03	–
Nc1ncc2[nH]cnc2n1 [2-Aminopurine]	1.07	–
O=C(O)c1ccc2nc(-c3ccccc3)c(-c3ccccc3)nc2c1 [BML-257]	0.98	–
COc1cccc(-c2cc(=O)c3ccccc3o2)c1N [PD-98059]	0.92	Total Nuclei Ratio [2, 4]: 0.96
CC(C)(C)c1cc(/C=C(\C#N)C(N)=S)cc(C(C)(C)C)c1O [AG-879]	1.03	–
CC1=C(O)C(=O)[C@@H]2O[C@@H]2C1=O [Terreic acid]	1.02	–
O.O.O=c1c(O)c(-c2ccc(O)c(O)c2)oc2cc(O)cc(O)c12 [Quercetin dihydrate]	0.97	–
C=CC(=O)c1ccc2ccccc2c1 [ZM 449829]	1.01	–
COc1ccc(S(=O)(=O)N(CCO)c2ccccc2CN(C)CC=Cc2ccc(Cl)cc2)cc1 [KN-93]	1.04	Total Nuclei Ratio ([2]; 1 uM, steps 3 and 4): 1.05 and 1.04
CC(C)(C)n1nc(-c2ccc(Cl)cc2)c2c(N)ncnc21 [PP2]	1.01	–
CC(C)(C)c1cc(C=C(C#N)C#N)cc(C(C)(C)C)c1O [Tyrphostin 9]	0.28	–
COCc1cc(O)c(O)c(O)c1-c1c(COC)cc(O)c(O)c1O [HBDDE, 2,2′,3,3′,4,4′-Hexahydroxy-1,1′-biphenyl-6,6′-dimethanol dimethyl ether]	1.07	–
CC[C@H](CO)Nc1nc(NCc2ccccc2)c2ncn(C(C)C)c2n1 [Roscovitine]	1.03	–
N#CC(C#N)=Cc1ccc([N+](=O)[O-])c(O)c1 [AG-126]	0.99	–
CN(C)CCCn1cc(C2=C(c3c[nH]c4ccccc34)C(=O)NC2=O)c2ccccc21 [GF 109203X]	1.05	Total Nuclei Ratio [2, 4]: 0.82
Cn1cnc2nc(NCCO)nc(NCc3ccccc3)c21 [iso-Olomoucine]	1.04	–
COC(=O)/C=C/c1cc(O)ccc1O [Erbstatin analog]	0.82	–
OC[C@H]1O[C@@H](n2cnc3cc(Cl)c(Cl)cc32)[C@H](O)[C@@H]1O [DRB, 5,6-Dichloro-1-b-D-ribofuranosylbenzimidazole]	1.01	–
N#C/C(=C/c1ccc(O)c(O)c1)C(=O)NCc1ccccc1 [AG-490]	1.04	Total Nuclei Ratio [2, 4]: 0.99
CC(C)c1cc(/C=C(\C#N)C(=O)NCCCc2ccccc2)cc(C(C)C)c1O [SU1498]	1.01	–
N#CC(C#N)=Cc1cc(O)c(O)c(O)c1 [Tyrphostin 25]	1.02	–
O=P(O)(O)C(O)c1ccc2ccccc2c1 (stereo not shown) [HNMPA, Hydroxy-2-naphthalenylmethylphosphonic acid]	1.01	–
O=c1cc(-c2ccc(O)cc2)oc2cc(O)cc(O)c12 [Apigenin]	1.05	–

Compound	Total Nuclei [1, 3]	other results
Oc1cc(O)cc(/C=C/c2ccc(O)c(O)c2)c1 [Piceatannol]	1.07	–
N#C/C(=C\c1ccc(O)c(O)c1)C(N)=S [Tyrphostin 47]	1.00	–
NCCNS(=O)(=O)c1cccc2cnccc12 [H-9]	1.00	Total Nuclei Ratio [2, 4]: 1.13
O=C(O)c1cc(NCc2cc(O)ccc2O)ccc1O [HDBA, 2-Hydroxy-5-(2,5-dihydroxybenzylamino)benzoic acid]	0.99	–
C[S+]([O-])c1ccc(-c2nc(-c3ccc(F)cc3)c(-c3ccncc3)[nH]2)cc1 (stereo not shown) [SB-203580]	1.07	Total Nuclei Ratio [2, 4]: 1.05
CN([C@@H](Cc1ccc(OS(=O)(=O)c2cccc3cnccc23)cc1)C(=O)N1CCN(c2ccccc2)CC1)S(=O)(=O)c1cccc2cnccc12 [KN-62]	0.96	Total Nuclei Ratio ([2]; 1 uM, steps 3 and 4): 1.02 and 1.03
O=C1Cc2c([nH]c3ccc(Br)cc23)-c2ccccc2N1 [Kenpaullone]	0.99	Total Nuclei Ratio [2, 4]: 1.02
CO[C@H]1C[C@@H]2CC[C@@H](C)[C@@](O)(O2)C(=O)C(=O)N2CCCC[C@H]2C(=O)O[C@H]([C@H](C)C[C@@H]2CC[C@@H](O)[C@H](OC)C2)CC(=O)[C@H](C)/C=C(\C)[C@@H](O)[C@@H](OC)C(=O)[C@H](C)C[C@H](C)/C=C/C=C/C=C/1C [Rapamycin]	0.47	–
COc1cc2ncnc(Nc3cccc(Cl)c3)c2cc1OC [Tyrphostin AG 1478]	1.10	–
CN(C)c1ccc(C=C2C(=O)Nc3ccccc32)cc1 [SU 4312]	1.07	–
CC(C)n1cnc2c(NCc3ccccc3)nc(NCCO)nc21 [N9-Isopropyl-olomoucine]	1.05	–
N#CC(C#N)=Cc1cc(O)c(O)c([N+](=O)[O-])c1 [Tyrphostin AG 1288]	1.04	–
N#C/C(=C\c1cc(Cl)cc(Cl)c1)c1cccnc1 [RG-14620]	1.02	–
CNCCNS(=O)(=O)c1cccc2cnccc12 [H-8]	0.99	–
C[C@@H](N)[C@H]1CC[C@H](C(=O)Nc2ccncc2)CC1 [Y-27632]	1.08	–
N#C/C(=C\c1ccc(O)c(O)c1)C(=O)Nc1ccccc1 [AG-494]	1.10	–
N#CC(C#N)=C(N)/C(C#N)=C/c1cc(O)c(O)c(O)c1 [Tyrphostin 51]	1.04	–
C/C(O)=C(\C#N)C(=O)Nc1cc(Br)ccc1Br [LFM-A13]	0.97	–
NC(N)=NCCNS(=O)(=O)c1cccc2cnccc12 [HA-1004]	1.08	Total Nuclei Ratio [2, 4]: 1.08
Cc1cc(O)c2c(=O)c3c(O)cc(O)c4c5c(O)cc(O)c6c(=O)c7c(O)cc(C)c8c1c2c(c34)c(c78)c65 [Hypericin]	1.07	–
Cc1cc2ncc(-c3ccccc3)nc2cc1C [Tyrphostin AG 1295]	1.08	–
Cn1cnc2c(NCc3ccccc3)nc(NCCO)nc21 [Olomoucine]	1.04	–
O=S(=O)(c1cccc2c(I)cccc12)N1CCCNCC1 [ML-7]	0.98	–
Cc1ccc(-c2nn(C(C)(C)C)c3ncnc(N)c23)cc1 [PP1]	0.99	–
N#CC(=Cc1ccc2[nH]ccc2c1)C(N)=C(C#N)C#N [AG-370]	1.01	–
